Where two headings read alike, the source gives them in different places.

For one data set, the system named is HIV-1IIIB. Put plainly: HIV-1IIIB replication inhibition assay in MT-2 lymphocytes (p24 antigen ELISA). In kind it is cell-based. To be noted: HIV-1IIIB infected MT-2 cell lines; concentration that inhibits HIV-1IIIB replication by 50%; NS: no suppression at concentrations below the CC50.
The test system of data set [1] is mock-infected MT-2 cell. Put plainly: Cytotoxicity in mock-infected MT-2 cells (XTT). To be noted: concentration that inhibits mock-infected MT-2 cell growth by 50%. (In general: Tetrazolium assays rely on reduction of a dye to a coloured formazan, in cell work by metabolically active cells.)
Experimental: (§1) HIV-1IIIB Replication Inhibition Assay in MT-2 Lymphocytes. The evaluation of HIV-1 inhibition was carried out as follows. […] Control wells containing virus and cells only (no drug) and cells only (no virus or drug) were also prepared. A second identical set of samples were added to cells under the same conditions without virus (mock infection) for cytotoxicity determinations (CC50 defined below). […] On day 4 PI, the assay was terminated and culture supernatants were harvested for p24 antigen ELISA analysis. The compound cytotoxicity was determined by XTT using the mock-infected sample wells.
For data set [2], the system named is mock-infected MT-2 cell.
Experimental: as §1

Experimental for HIV-1IIIB: as §1

On to `C=C(COCC)[C@@H]1CC[C@]2(C(=O)N[C@@H](CC(C)C)C(=O)O)CC[C@]3(C)[C@H](CC[C@@H]4[C@@]5(C)CC[C@H](O)C(C)(C)[C@@H]5CC[C@]43C)[C@@H]12` [Compound 10, N-[3β-Hydroxy-30-ethoxy-lup-20(29)-en-28-oyl]-leucine], for which the 50% effective concentration (EC50) in the data set on HIV-1IIIB was greater than 16.7 µM. In the data set on mock-infected MT-2 cell [1], this compound had a CC50 of 40.7 µM.

As for `C=C(CO)[C@@H]1CC[C@]2(C(=O)N[C@@H](CC(C)C)C(=O)O)CC[C@]3(C)[C@H](CC[C@@H]4[C@@]5(C)CC[C@H](O)C(C)(C)[C@@H]5CC[C@]43C)[C@@H]12` [Compound 28, N-[3β,30-Dihydroxy-lup-20(29)-en-28-oyl]-leucine], the EC50 in the data set on HIV-1IIIB is greater than 16.7 µM. Moreover, the half-maximal cytotoxic concentration (CC50) in the data set with mock-infected MT-2 cell [1] came to 30.7 µM.

For `C=C(C)[C@@H]1CC[C@]2(C(=O)N3CCC(CCCC(=O)O)CC3)CC[C@]3(C)[C@H](CC[C@@H]4[C@@]5(C)CC[C@H](OC(=O)CC(C)(C)C(=O)O)C(C)(C)[C@@H]5CC[C@]43C)[C@@H]12` [Compound 39, N-[3β-O-(3′,3′-Dimethylsuccinyl)-lup-20(29)-en-28-oyl]-4-piperidine butyric acid], in the data set with HIV-1IIIB, it took 0.015 µM to reach a half-maximal effect (EC50). The compound also displayed a CC50 in the data set on mock-infected MT-2 cell [1] of 20.8 µM.

As to `C=C(COCCCC)[C@@H]1CC[C@]2(C(=O)N[C@@H](CC(C)C)C(=O)O)CC[C@]3(C)[C@H](CC[C@@H]4[C@@]5(C)CC[C@H](O)C(C)(C)[C@@H]5CC[C@]43C)[C@@H]12` [Compound 12, N-[3β-Hydroxy-30-butoxy-lup-20(29)-en-28-oyl]-leucine], the EC50 with HIV-1IIIB was greater than 16.7 µM. The compound also displayed a CC50 in the data set on mock-infected MT-2 cell [1] of 24.9 µM.

In turn, `C=C(C)[C@@H]1CC[C@]2(C(=O)N[C@@H](CC(C)C)C(=O)O)CC[C@]3(C)[C@H](CC[C@@H]4[C@@]5(C)CC[C@H](O)C(C)(C)[C@@H]5CC[C@]43C)[C@@H]12` [Compound 22, N-[3β-Hydroxy-lup-20(29)-en-28-oyl]-leucine] showed a 50% cytotoxic concentration (CC50) in the data set with mock-infected MT-2 cell [2] of 29.8 µM.

`Cc1cn([C@H]2C[C@H](N=[N+]=[N-])[C@@H](CO)O2)c(=O)[nH]c1=O` [AZT, reference compound]: the midpoint of cytotoxicity in the data set with mock-infected MT-2 cell [2], the CC50, lay at 1870 µM.

In the data set with HIV-1IIIB, `C=C(C)[C@@H]1CC[C@]2(C(=O)N3CCC(CCCC(=O)O)CC3)CC[C@]3(C)[C@H](CC[C@@H]4[C@@]5(C)CC[C@H](OC(=O)CCC(C)(C)C(=O)O)C(C)(C)[C@@H]5CC[C@]43C)[C@@H]12` [Compound 40, N-[3β-O-(4′,4′-Dimethylglutaryl)-lup-20(29)-en-28-oyl]-4-piperidine butyric acid] registered an EC50 of 0.23 µM. The compound also showed a CC50 in the data set with mock-infected MT-2 cell [1] of 33.2 µM.

Regarding `C=C(CBr)[C@@H]1CC[C@]2(C(=O)N[C@@H](CC(C)C)C(=O)O)CC[C@]3(C)[C@H](CC[C@@H]4[C@@]5(C)CC[C@H](O)C(C)(C)[C@@H]5CC[C@]43C)[C@@H]12` [Compound 24, N-[3β-Hydroxy-30-bromo-lup-20(29)-en-28-oyl]-leucine], in the data set with HIV-1IIIB, the EC50 was greater than 16.7 µM. Also, the midpoint of cytotoxicity with mock-infected MT-2 cell [1], the CC50, lay at 26.8 µM.

With `C=C(COCCc1ccccc1)[C@@H]1CC[C@]2(C(=O)N[C@@H](CC(C)C)C(=O)O)CC[C@]3(C)[C@H](CC[C@@H]4[C@@]5(C)CC[C@H](O)C(C)(C)[C@@H]5CC[C@]43C)[C@@H]12` [Compound 13, N-[3β-Hydroxy-30-phenethoxy-lup-20(29)-en-28-oyl]-leucine], the EC50 in the data set with HIV-1IIIB was greater than 16.7 µM. In the data set on mock-infected MT-2 cell [1], this compound came in with a CC50 of 21.7 µM.

In the data set with HIV-1IIIB, `C=C(COCCC)[C@@H]1CC[C@]2(C(=O)N[C@@H](CC(C)C)C(=O)O)CC[C@]3(C)[C@H](CC[C@@H]4[C@@]5(C)CC[C@H](O)C(C)(C)[C@@H]5CC[C@]43C)[C@@H]12` [Compound 11, N-[3β-Hydroxy-30-propoxy-lup-20(29)-en-28-oyl]-leucine] displayed an EC50 greater than 16.7 µM. This compound also returned a CC50 in the data set with mock-infected MT-2 cell [1] of 25.3 µM.

In the case of `C=C(CN1CCOCC1)C1CCC2(C(=O)NC(CC(C)C)C(=O)O)CCC3(C)C(CCC4C5(C)CCC(O)C(C)(C)C5CCC43C)C12` (stereo not drawn) [Compound 18, N-[3β-Hydroxy-30-morpholino-lup-20(29)-en-28-oyl]-leucine], the EC50 in the data set on HIV-1IIIB was greater than 16.7 µM. The compound also had a CC50 in the data set on mock-infected MT-2 cell [1] of 27.5 µM.

As a reminder, the EC50 is the midpoint of the concentration-response curve. Higher therefore signals a need for much substance. In general, CC50 refers to the concentration giving 50% cytotoxicity. A high value points to better tolerance by the cells.

The record behind these values is US20120101098A1, “3,28-DISUBSTITUTED BETULINIC ACID DERIVATIVES AS ANTI-HIV AGENTS” (priority 2009, published 2012).
